What was measured:
[1] = biological target: T1, B1 bradykinin receptor (Homo sapiens, UniProt P46663)
T1 sequence (P46663 whole entry): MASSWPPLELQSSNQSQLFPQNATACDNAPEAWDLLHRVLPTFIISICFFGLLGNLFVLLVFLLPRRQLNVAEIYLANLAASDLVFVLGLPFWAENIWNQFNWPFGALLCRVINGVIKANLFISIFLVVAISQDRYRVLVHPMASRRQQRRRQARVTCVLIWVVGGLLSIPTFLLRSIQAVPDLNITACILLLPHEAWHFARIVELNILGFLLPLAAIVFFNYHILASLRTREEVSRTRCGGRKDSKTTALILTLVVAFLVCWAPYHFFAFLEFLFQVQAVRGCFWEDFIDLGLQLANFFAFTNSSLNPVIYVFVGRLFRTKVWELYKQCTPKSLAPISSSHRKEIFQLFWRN

[2] = biological target: T2, Corticotropin-releasing factor receptor 1 (Homo sapiens, UniProt P34998)
T2 sequence (P34998 whole entry): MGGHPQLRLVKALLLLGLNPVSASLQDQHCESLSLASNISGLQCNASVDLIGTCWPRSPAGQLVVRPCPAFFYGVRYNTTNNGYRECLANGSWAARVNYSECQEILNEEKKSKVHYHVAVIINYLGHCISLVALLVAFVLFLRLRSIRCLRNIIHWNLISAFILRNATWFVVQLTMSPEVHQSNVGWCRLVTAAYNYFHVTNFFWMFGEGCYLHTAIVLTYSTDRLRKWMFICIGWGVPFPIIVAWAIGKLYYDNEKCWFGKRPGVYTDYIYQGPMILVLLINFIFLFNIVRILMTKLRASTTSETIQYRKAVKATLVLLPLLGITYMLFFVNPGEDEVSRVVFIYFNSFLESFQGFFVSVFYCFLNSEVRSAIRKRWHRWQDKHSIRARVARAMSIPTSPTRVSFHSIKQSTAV

[3] = biological target: T3, Corticotropin-releasing factor receptor 2 (Homo sapiens, UniProt Q13324)
T3 sequence (Q13324 whole entry): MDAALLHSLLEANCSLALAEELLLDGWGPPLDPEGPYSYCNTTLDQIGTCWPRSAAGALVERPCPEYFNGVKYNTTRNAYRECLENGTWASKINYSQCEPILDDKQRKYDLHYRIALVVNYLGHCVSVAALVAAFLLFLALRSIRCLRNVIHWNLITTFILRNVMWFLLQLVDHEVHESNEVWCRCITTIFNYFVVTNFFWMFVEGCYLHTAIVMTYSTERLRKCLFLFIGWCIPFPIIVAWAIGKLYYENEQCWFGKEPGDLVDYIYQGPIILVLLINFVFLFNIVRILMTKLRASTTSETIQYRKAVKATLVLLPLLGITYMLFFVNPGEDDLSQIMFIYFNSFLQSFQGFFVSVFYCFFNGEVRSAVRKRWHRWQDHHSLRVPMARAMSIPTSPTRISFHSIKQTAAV

[4] = biological target: T4, Endothelin receptor type B (Homo sapiens, UniProt P24530)
T4 sequence (P24530 whole entry): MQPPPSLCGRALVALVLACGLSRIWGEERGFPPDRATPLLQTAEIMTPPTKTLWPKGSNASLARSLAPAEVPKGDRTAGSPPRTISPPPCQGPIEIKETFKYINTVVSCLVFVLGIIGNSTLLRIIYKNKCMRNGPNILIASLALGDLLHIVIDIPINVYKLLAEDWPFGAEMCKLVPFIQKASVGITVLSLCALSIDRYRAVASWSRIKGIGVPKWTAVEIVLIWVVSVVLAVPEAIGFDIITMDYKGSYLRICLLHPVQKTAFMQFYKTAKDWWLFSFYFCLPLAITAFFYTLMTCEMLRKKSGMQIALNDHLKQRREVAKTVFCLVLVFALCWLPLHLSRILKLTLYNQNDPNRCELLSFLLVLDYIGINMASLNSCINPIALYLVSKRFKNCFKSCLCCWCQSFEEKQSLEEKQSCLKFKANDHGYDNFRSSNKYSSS

[5] = biological target: Glucagon receptor (Homo sapiens, UniProt P47871)
Sequence of Glucagon receptor (P47871 whole entry): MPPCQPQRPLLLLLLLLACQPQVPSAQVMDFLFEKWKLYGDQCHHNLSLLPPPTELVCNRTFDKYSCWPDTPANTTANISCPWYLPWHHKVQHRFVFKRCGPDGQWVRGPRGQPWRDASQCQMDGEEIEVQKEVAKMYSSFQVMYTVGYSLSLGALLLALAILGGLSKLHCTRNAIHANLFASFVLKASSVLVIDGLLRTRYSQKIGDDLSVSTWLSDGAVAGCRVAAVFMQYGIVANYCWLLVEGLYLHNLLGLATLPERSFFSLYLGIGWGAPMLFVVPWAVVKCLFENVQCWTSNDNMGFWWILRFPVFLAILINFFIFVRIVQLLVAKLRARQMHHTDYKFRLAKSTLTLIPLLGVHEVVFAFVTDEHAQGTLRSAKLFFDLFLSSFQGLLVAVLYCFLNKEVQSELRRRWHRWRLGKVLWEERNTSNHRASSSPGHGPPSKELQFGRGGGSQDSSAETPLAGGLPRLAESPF

[6] = biological target: 3',5'-cyclic-AMP phosphodiesterase 4A (Homo sapiens, UniProt P27815); type: functional
Sequence of 3',5'-cyclic-AMP phosphodiesterase 4A (P27815 whole entry): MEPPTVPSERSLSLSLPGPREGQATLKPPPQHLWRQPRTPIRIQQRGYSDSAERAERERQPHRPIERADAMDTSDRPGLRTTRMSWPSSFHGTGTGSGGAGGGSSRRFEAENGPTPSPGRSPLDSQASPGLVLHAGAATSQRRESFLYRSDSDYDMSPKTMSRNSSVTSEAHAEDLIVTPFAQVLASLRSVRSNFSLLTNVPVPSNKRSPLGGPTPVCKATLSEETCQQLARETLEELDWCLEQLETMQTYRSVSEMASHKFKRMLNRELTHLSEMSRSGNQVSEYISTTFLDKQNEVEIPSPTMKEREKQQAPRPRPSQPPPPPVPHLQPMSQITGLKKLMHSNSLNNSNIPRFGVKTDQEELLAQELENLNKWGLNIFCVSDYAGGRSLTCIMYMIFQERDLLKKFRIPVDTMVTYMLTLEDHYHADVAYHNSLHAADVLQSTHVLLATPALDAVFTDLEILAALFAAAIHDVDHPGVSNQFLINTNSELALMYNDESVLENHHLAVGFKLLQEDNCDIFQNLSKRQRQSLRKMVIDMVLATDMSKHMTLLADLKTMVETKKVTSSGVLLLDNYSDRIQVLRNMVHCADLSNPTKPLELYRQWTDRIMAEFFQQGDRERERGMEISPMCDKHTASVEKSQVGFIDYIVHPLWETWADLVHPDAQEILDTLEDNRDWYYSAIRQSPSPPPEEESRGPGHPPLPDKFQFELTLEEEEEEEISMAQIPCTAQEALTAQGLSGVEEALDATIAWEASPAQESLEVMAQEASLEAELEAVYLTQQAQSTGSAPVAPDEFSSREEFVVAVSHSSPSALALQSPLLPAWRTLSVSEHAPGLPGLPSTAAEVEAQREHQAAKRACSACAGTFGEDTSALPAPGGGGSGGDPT

[7] = biological target: T5, 5-hydroxytryptamine receptor 1A (Homo sapiens, UniProt P08908)
T5 sequence (P08908 whole entry): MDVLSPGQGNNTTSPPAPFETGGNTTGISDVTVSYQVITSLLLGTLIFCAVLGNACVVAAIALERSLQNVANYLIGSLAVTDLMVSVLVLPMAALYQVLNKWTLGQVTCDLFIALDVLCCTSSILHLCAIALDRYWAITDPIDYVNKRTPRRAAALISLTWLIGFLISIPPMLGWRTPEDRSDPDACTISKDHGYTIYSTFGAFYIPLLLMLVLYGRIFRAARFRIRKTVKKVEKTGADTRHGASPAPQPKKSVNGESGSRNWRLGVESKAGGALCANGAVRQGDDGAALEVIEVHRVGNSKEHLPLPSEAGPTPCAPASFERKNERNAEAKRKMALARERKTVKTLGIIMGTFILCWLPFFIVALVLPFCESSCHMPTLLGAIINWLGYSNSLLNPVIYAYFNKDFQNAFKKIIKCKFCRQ

[8] = biological target: Muscarinic acetylcholine receptor M3 (Homo sapiens, UniProt P20309)
Sequence of Muscarinic acetylcholine receptor M3 (P20309 whole entry): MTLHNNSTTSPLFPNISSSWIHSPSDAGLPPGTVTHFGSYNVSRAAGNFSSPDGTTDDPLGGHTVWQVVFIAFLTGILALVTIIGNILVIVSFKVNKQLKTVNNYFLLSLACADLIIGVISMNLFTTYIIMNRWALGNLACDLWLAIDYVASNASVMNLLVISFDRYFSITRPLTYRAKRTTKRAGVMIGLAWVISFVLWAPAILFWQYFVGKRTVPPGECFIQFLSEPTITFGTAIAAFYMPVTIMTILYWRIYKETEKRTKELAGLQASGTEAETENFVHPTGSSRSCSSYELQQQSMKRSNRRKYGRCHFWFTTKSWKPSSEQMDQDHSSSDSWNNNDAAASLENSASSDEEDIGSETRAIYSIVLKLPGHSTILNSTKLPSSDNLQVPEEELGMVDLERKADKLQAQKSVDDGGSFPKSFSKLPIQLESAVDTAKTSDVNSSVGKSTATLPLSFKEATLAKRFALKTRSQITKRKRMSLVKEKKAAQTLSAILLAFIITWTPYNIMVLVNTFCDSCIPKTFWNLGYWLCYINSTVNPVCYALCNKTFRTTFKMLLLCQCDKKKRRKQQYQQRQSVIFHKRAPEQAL

[9] = biological target: T6, Adenosine receptor A3 (Homo sapiens, UniProt P0DMS8)
T6 sequence (P0DMS8 whole entry): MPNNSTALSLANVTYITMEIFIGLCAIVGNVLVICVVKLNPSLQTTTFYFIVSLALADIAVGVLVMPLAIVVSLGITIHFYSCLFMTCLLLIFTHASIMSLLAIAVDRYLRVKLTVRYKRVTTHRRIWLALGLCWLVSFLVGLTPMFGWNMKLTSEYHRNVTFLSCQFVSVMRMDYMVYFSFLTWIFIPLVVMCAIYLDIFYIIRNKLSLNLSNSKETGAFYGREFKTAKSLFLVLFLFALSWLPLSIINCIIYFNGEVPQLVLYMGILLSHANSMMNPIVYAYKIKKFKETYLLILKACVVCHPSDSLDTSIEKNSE

[10] = biological target: Gamma-aminobutyric acid receptor subunit alpha-1/alpha-2/beta-2/gamma-2 (Homo sapiens, UniProt P14867+P18507+P47869+P47870); type: protein-complex assay
Sequence of Gamma-aminobutyric acid receptor subunit alpha-1/alpha-2/beta-2/gamma-2 (P14867 whole entry): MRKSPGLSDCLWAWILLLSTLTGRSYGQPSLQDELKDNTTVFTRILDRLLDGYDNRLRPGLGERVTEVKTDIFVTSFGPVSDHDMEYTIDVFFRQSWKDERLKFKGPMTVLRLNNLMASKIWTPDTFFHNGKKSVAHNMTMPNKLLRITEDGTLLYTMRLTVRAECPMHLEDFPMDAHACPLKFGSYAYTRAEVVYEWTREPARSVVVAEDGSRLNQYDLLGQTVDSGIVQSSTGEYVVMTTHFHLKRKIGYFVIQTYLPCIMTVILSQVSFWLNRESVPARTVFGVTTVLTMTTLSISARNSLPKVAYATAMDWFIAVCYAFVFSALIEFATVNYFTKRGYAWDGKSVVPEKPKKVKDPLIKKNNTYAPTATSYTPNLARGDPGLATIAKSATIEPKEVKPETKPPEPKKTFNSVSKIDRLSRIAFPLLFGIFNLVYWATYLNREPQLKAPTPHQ
Sequence of Gamma-aminobutyric acid receptor subunit alpha-1/alpha-2/beta-2/gamma-2 (P47870 whole entry): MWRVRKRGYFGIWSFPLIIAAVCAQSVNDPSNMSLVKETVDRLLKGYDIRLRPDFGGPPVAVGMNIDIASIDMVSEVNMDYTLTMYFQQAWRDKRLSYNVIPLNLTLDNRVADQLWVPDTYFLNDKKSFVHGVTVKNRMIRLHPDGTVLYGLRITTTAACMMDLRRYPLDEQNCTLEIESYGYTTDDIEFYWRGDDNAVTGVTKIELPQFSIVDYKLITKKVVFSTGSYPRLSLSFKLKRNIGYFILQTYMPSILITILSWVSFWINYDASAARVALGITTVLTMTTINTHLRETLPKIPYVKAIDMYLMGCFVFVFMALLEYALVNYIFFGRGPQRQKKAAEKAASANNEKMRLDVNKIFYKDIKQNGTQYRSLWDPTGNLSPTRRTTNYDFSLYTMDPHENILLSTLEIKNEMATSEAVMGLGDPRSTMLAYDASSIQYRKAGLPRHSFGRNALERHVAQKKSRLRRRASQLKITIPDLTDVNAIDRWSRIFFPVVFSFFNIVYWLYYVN
Sequence of Gamma-aminobutyric acid receptor subunit alpha-1/alpha-2/beta-2/gamma-2 (P18507 whole entry): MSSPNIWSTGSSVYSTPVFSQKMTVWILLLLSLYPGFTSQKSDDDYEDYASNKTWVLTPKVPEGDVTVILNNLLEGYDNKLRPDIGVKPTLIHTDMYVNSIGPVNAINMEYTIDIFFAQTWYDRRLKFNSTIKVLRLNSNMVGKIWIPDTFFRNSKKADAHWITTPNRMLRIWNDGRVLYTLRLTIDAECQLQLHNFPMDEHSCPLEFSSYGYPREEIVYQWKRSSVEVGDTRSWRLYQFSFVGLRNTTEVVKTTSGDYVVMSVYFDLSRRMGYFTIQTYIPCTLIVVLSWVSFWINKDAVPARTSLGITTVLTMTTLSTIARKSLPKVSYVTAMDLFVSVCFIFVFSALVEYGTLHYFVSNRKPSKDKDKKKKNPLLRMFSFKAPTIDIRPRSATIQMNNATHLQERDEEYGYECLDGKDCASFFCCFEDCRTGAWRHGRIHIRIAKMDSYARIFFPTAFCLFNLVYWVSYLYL
Sequence of Gamma-aminobutyric acid receptor subunit alpha-1/alpha-2/beta-2/gamma-2 (P47869 whole entry): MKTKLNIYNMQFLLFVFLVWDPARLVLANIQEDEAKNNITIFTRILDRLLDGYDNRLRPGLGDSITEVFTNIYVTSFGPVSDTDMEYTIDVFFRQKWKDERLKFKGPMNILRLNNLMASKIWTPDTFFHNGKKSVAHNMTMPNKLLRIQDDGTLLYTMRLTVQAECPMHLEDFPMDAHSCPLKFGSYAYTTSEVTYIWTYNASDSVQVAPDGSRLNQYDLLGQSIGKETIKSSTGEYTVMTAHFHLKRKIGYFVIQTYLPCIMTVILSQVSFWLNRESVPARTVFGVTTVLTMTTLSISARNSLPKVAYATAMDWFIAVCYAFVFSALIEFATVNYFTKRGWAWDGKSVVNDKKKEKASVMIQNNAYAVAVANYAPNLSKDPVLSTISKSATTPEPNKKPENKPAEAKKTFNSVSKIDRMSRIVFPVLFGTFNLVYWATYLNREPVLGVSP

[11] = biological target: Sodium-dependent serotonin transporter (Homo sapiens, UniProt P31645)
Sequence of Sodium-dependent serotonin transporter (P31645 whole entry): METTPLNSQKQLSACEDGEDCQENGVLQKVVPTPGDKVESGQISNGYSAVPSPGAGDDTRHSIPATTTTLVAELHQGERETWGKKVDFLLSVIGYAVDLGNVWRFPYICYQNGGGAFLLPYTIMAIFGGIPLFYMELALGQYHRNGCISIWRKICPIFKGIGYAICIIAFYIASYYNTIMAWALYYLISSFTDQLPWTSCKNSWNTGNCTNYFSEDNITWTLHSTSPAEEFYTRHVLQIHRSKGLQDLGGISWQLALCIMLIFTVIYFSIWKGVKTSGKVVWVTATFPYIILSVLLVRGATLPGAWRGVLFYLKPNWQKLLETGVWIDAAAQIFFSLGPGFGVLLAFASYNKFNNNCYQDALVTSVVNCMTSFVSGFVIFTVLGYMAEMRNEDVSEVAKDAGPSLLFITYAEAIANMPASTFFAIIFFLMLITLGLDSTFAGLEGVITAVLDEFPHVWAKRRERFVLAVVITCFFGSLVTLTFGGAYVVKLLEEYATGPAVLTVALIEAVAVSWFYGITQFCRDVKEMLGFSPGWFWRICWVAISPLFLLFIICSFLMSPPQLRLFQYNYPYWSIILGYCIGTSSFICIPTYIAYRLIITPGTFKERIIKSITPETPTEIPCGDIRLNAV
Also: assay procedure not described here.

SMILES | AC50 [1] [µM] | AC50 [2] [µM] | AC50 [3] [µM] | AC50 [4] [µM] | AC50 [5] [µM] | AC50 [6] [µM] | AC50 [7] [µM] | AC50 [8] [µM] | AC50 [9] [µM] | AC50 [10] [µM] | AC50 [11] [µM]
Cc1cnc(C(=O)NCCc2ccc(S(=O)(=O)NC(=O)NC3CCCCC3)cc2)cn1 [GLIPIZIDE] | > 30 | > 30 | > 30 | > 30 | > 30 | > 30 | > 10 |  |  |  | 
[H]/N=C(/N)N/C(=N/[H])NCCc1ccccc1 [PHENFORMIN] | > 30 | > 30 | > 30 | > 30 | > 30 |  | > 10 | > 30 |  |  | 
O=C(O)c1cn(C2CC2)c2cc(N3CCNCC3)c(F)cc2c1=O [CIPROFLOXACIN] | > 30 | > 30 | > 30 | > 30 | > 30 | > 30 |  |  |  |  | 
CCN(CCCc1ccccc1)CCCc1ccccc1 [ALVERINE] |  |  |  |  |  | > 30 |  |  | > 30 | > 30 | 1.7
CCOC(=O)C1=C(C)NC(C)=C(C(=O)OC)C1c1cccc([N+](=O)[O-])c1 (stereo not drawn) [NITRENDIPINE] | > 30 | > 30 | > 30 | > 30 | > 30 |  | > 10 |  |  |  | 
OC1(c2ccc(Cl)cc2)c2ccccc2C2=NCCN21 (stereo not drawn) [MAZINDOL] | > 30 | > 30 | > 30 | 33.1 | > 30 |  | > 10 | > 30 |  |  | 
CN1CCN(C2=Nc3ccccc3Oc3ccc(Cl)cc32)CC1 [LOXAPINE] | > 30 | > 30 | > 30 | > 30 | > 30 | > 30 | 33.1 |  | 27.4 |  | 
CC(CCc1ccc(O)cc1)NCCc1ccc(O)c(O)c1 (stereo not drawn) [DOBUTAMINE] | > 30 | > 30 | > 30 | > 30 | > 30 |  | > 10 |  |  |  | 
CCOC(=O)N1CSC[C@H]1C(=O)O [TELMESTEINE] |  |  |  |  |  | > 30 |  |  | > 30 | > 30 | > 30
CC(C)N(CCNC(=O)CN1CCCC1=O)C(C)C |  |  |  |  |  | > 30 |  |  | > 30 | > 30 | > 30
CC12CC3CC(C)(C1)CC(N)(C3)C2 [MEMANTINE] | > 30 | > 30 | > 30 | > 30 | > 30 |  | > 10 | > 30 |  |  | 
c1ccc2c(c1)CCc1ccccc1N2C1CN2CCC1CC2 (stereo not drawn) [QUINUPRAMINE] |  |  |  |  |  | > 30 |  |  | > 30 | > 30 | 0.507
CCC(=O)O[C@]1(C(=O)CCl)[C@@H](C)C[C@H]2[C@@H]3C[C@H](F)C4=CC(=O)C=C[C@]4(C)[C@@]3(F)[C@@H](O)C[C@@]21C [HALOBETASOL PROPIONATE] |  |  |  |  |  | > 30 |  |  | 19.7 | > 30 | > 30
CC1=CCC(C(C)(C)O)CC1O (stereo not drawn) [SOBREROL] |  |  |  |  |  | > 30 |  |  | > 30 | > 30 | > 30
CC(C)NCC(O)c1ccc(O)c(O)c1 (stereo not drawn) [ISOPROTERENOL] | > 30 | > 30 | > 30 | > 30 | > 30 |  | > 10 |  |  |  | 
CCCc1nc(C(C)(C)O)c(C(=O)O)n1Cc1ccc(-c2ccccc2-c2nnn[nH]2)cc1 [OLMESARTAN] |  |  |  |  |  | > 30 |  |  | > 30 | > 30 | > 30
Cc1ncc(COP(=O)(O)O)c(C=O)c1O [PYRIDOXAL PHOSPHATE ANHYDROUS] |  |  |  |  |  | 19.5 |  |  | > 30 | > 30 | > 30
CC(C)COCC(CN(Cc1ccccc1)c1ccccc1)N1CCCC1 (stereo not drawn) [BEPRIDIL] | > 30 | > 30 | > 30 | > 30 | > 30 |  |  | 17 |  |  | 
CC(N)C(O)c1ccccc1 (stereo not drawn) [PHENYLPROPANOLAMINE] | > 30 | > 30 | > 30 | > 30 | > 30 |  | > 10 |  |  |  | 
CCC(=O)O[C@]1(C(=O)SCF)[C@H](C)C[C@H]2[C@@H]3C[C@H](F)C4=CC(=O)C=C[C@]4(C)[C@@]3(F)[C@@H](O)C[C@@]21C [FLUTICASONE PROPIONATE] | > 30 | > 30 | > 30 | > 30 | > 30 | > 30 | > 10 | > 30 | 23.2 |  | 

— ChEMBL document CHEMBL5291721, “A preclinical secondary pharmacology resource illuminates target-adverse drug reaction associations of marketed drugs” (Nat Commun, 2023)
